Results on 1 molecule are retold here after US10479781B2, “Peptidyl nitril compounds as dipeptidyl peptidase I inhibitors” (Prozymex A/S, priority 2015, dated 2019).

Series [1] is described as follows: Test for metabolic stability (human liver microsomes). It is filed as in vitro ADME. Conditions: pH 7.4; human liver microsomes 1.0 mg/mL, 1 mM NADPH, test compound 5 μM, 37° C. On the procedure: Test for Metabolic Stability
The test for metabolic stability was performed by Absorption System, Exton, Pa. 19341, USA.
The test compound (DPPI inhibitor) was dissolved in 100% DMSO at a concentration of 10 mM. The reaction mixture, consisted of Mouse or Human Liver Microsomes (1.0 mg/mL), 1 mM NADPH, 100 mM Potassium Phosphate, pH 7.4, 10 mM Magnesium Chloride and test compound at a concentration of 5 μM.
An aliquot of the reaction mixture (without cofactors) was incubated in a shaking water bath at 37° C. for 3 minutes. Another aliquot of the reaction mixture was prepared as the negative control. The test compound was added into both the reaction mixture and the negative control at a final concentration of 5 μM.
The reaction was initiated by the addition of NADPH to 1 mM (not into the negative controls) and then incubated in a shaking water bath at 37° C. Aliquots (100 μL) were withdrawn at 0, 10, 20, 30, and 60 minutes or at 0, 15, 30 and 60 minutes and combined with 900 μL of ice-cold 50/50 acetonitrile/dH2O to terminate the reaction. A control (testosterone) was run simultaneously with the test compound in a separate reaction. […] The elimination half-lives associated with the disappearance of the test and control compounds were determined to compare their relative metabolic stability.
Background: Liver microsomes are a subcellular fraction often used to study metabolism.

Series [2] has as its target T1, DPPI (Homo sapiens, UniProt P53634). The series can be described thus: Human DPPI inhibition assay 2. It is filed as biochemical. The arrangement: purchased UNIZYME Laboratories A/S. Conditions: substrate Gly-Phe-paranitroanilide 750 μM, pH 4.5, 37° C. On the procedure: Human DPPI Inhibition Assay 2
Using this assay, the IC50 value of the compound of the invention may be determined using Gly-Phe-paranitroanilide as a DPPI specific substrate.
Assay buffer: 20 mM citric acid (2.1 g citric acid), 150 mM NaCl (4.4 g NaCl) and 2 mM EDTA (370 mg EDTA) was dissolved in 500 mL H2O, and pH was adjusted to 4.5 with HCl.
Substrate: Gly-Phe-paranitroanilide (Sigma Aldrich; Cat. No G0142) was used as the substrate for determination of IC50 values. Km was 2.2 mM. The substrate was solubilized in dimethylformamid to give a 0.2-0.5 M stock solution, which was then further diluted with stirring in assay buffer to a final concentration of 1 mM.
DPPI: Human DPPI (obtained from UNIZYME Laboratories A/S, DK-2970 Hørsholm, Denmark) was stored at −20° C. in a buffer containing 2.5 mM Na-phosphate, 150 mM NaCl, 2 mM cysteamine, 50% glycerol, pH 7.0 at a concentration of 2.2 mg/mL (≈12 μM). This stock solution was diluted 800-3200 times in assay buffer to a concentration of about 4-15 nM.
Assay conditions: The assay was performed in 96-well plates. […] The absorption was measured at 405 nm at 37° C. for every 90 seconds for 12 minutes or every 20 seconds for 4 minutes. […] IC50 was determined using a 4-parameter logistic equation in a non-linear curve fitting routine.

In series [3] the target is T1, DPPI. Description: Cell based DPPI inhibition assay 2. The arrangement: endogenous in cells; host or cells: U937 cells. Conditions: neutrophil elastase activity in U937 cells grown 48 hours with inhibitor. How it is done:
Cell Based DPPI Inhibition Assay 2
Using the cell based assay described below, the biological activity of the compounds of the invention or other DPPI inhibitors may be determined.
Neutrophil elastase enzymatic activities in U937 cells grown in the presence of DPPI inhibitors were measured by methods modified from Méthot N; Rubin J; Guay D; Beaulieu C; Ethier D; Reddy T J; Riendeau D and Percival M D (2007) J Biol Chem, 282, 20836-20846.
U937 cells were propagated in culture media (RPMI 1640, supplemented with 10% FBS, 10 mM Hepes, 1 mM sodium pyrovate, 100 units/ml of each of penicillin and streptomycin). Cells were seeded in 12-well plates at ≈0.2×10^6 cells/ml in volumes of 1.5 ml per well in the presence of no or increasing concentrations of DPPI inhibitor. 12 points in duplicate in the range of 0.01 nM to 10 μM inhibitor were tested. […]
The activity of neutrophil elastase was determined by measuring the enzymatic release of chromogenic p-nitroaniline from the substrate MetOSuc-Ala-Ala-Pro-Val-pNA, which leads to an increase in absorbance at 405 nm. Assays were carried out in 96-well plates in a final volume of 200 μL at 37° C., and absorbance was measured 8 times during 21 minutes using a plate reader. IC50 was determined using a 4-parameter logistic equation in a non-linear curve fitting routine.

T1 sequence (P53634 231-394 limits assumed): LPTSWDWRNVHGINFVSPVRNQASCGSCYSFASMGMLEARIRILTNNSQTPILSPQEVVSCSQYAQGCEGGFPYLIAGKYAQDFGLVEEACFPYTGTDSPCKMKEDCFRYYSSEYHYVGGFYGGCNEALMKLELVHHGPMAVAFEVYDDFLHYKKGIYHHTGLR
T1 sequence (P53634 25-134 limits assumed): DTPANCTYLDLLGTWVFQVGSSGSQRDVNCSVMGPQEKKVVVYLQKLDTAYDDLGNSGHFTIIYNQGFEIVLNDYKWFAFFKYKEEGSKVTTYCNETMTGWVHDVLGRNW
T1 sequence (P53634 395-463 limits assumed): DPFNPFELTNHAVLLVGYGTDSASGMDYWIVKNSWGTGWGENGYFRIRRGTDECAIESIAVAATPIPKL

Broadly, the half-life is the time in which the quantity being followed falls by half. What is called IC50 is the concentration that gives 50% inhibition. A high value points to lower potency. Molecule `CN1CCN(Cc2ccc(-c3ccc(C[C@@H](C#N)NC(=O)C4(N)CCOCC4)c(F)c3)cc2)CC1` [PZ1101, (S)-4-amino-N-(1-cyano-2-(3-fluoro-4′-((4-methylpiperazin-1-yl)methyl)-[1,1′-biphenyl]-4-yl)ethyl)tetrahydro-2H-pyran-4-carboxamide] displayed a half-life at 5 μM in series [1] of over 120 min. Further, the results for the IC50 on DPPI [2] and on DPPI [3] were about 6 nM and about 2.5 nM, respectively.
